Values quoted from earlier work, collected in patent US8455478B2, “Rapid onset liquid midazolam composition for buccal administration” (Special Products, Ltd., priority 2010, dated 2013).

Conditions: pH 8, aqueous solution

SMILES: Cc1ncc2n1-c1ccc(Cl)cc1C(c1ccccc1F)=NC2 [midazolam, 8-chloro-6-(2-fluorophenyl)-1-methyl-4H-imidazo[1,5-a][1,4]]
- solubility of midazolam: 55 µg/mL
